Measured values reported in US20120295923A1, “Aminocyclohexanes and Aminotetrahydropyrans and Related Compounds As Gamma-Secretase Modulators” (PFIZER INC., priority 2010, published 2012).
pIC50: −log10 of the molar value. Where a name gives a salt, the structure may show the parent alone. Read-outs that look alike come from different tables or passages of the source.

Tested on: γ-secretase; production of amyloid beta protein Aβ(1-42)
Assay: Cell-Based γ-Secretase Assay with ELISA Readout
Conditions: human WT-APP overexpressing CHO cells; for IC50: footnote 8: single determination, read-out: Aβ 42B IC50 (nM) (Geometric Mean of 2-8 Determinations); for pIC50: geometric mean of 2-4 determinations unless otherwise indicated (footnote 10: 6-8; footnote 14: single determination), read-out: Aβ 42B IC50
Method: The ability of compounds to modulate production of amyloid beta protein A6(1-42) was determined using human WT-APP overexpressing CHO cells. Cells were plated at 22,000 cells/100 μL well in 96 well tissue culture treated, clear plates (Falcon) in DMEM/F12 based medium and incubated for 24 hours at 37° C. Compounds for testing were diluted in 100% DMSO to achieve an eleven points, half log, dose response for IC50 determinations. Compounds were added in fresh medium to achieve 1% final DMSO. Appropriate vehicle and inhibitor controls were added to obtain maximum and minimum inhibition values for the assay before the plates were incubated for about 24 hours at 37° C.
Coating of ELISA assay plates was initiated by addition of 50 μL/well of an in-house Aβ(1-42) specific antibody at (4 μg/mL) in 0.1 M NaHCO3 (pH 9.0) into black 384-well Maxisorp® plates (Nunc) and incubated overnight at 4° C. The capture antibody was then aspirated from the ELISA assay plates and 100 μL/well of Blocking Buffer (Dulbecco's PBS, 1.5% BSA (Sigma A7030)) added. Ambient temperature incubation was allowed to proceed for a minimum of two hours before washing 2×100 μL with Wash Buffer (Dulbecco's PBS, 0.05% Tween 20). Assay Buffer (Dulbecco's PBS, 1.0% BSA (Sigma A7030), 0.05% Tween 20) 20 μL/well was then added.
After incubation overnight at 37° C., 5% CO2, 40 μL (in duplicate) of experimental conditioned media were transferred into wells of the blocked ELISA plates containing the capture antibody, followed by overnight incubation at 4° C.
After overnight incubation of the ELISA assay plates at 4° C., unbound Aβ peptides were removed thorough (4×100 μL) washes with Wash Buffer. Europium (Eu) labeled (custom labeled, Perkin Elmer) Aβ(1-16) 6e10 Monoclonal Antibody (Covance #SIG-39320 was added, (50 μL/well Eu-6e10 @ 1:5000, 20 uM EDTA) in Assay Buffer. Incubation at ambient temperature for a minimum of 2 hours was followed by (4×100 μL) washes with Wash Buffer, before 50 μL/well of Delfia Enhancement Solution (PerkinElmer) was added. Following a one hour ambient temperature incubation, the plates were read on an EnVision plate reader (PerkinElmer) using standard DELFIA TRF settings. Data analysis including inhibitory IC50 determination was performed using nonlinear regression fit analysis (in-house software) and the appropriate plate mean values for the maximum and minimum inhibition controls.

O=C(O)C[C@@H]1CC[C@@H](N(Cc2cccc(F)c2)CC2CCCC2)[C@H](c2ccc(C(F)(F)F)cc2)C1 [Example 28, {(1R,3S,4R)-4-[(cyclopentyl-methyl)(3-fluorobenzyl)amino]-3-[4-(trifluoromethyl)phenyl]cyclohexyl} acetic acid, hydro-chloride salt]
IC50: 230 nM

O=C(O)C[C@@H]1CC[C@@H](N2CC3(CCCC3)CC3(CCCC3)C2)[C@H](c2ccc(C(F)(F)F)cc2)C1 [Example 29, {(1R,3S,4R)-4-(13-azadispiro [4.1.4.3]tetradec-13-yl)-3-[4-(trifluoromethyl)phenyl]cyclohexyl} acetic acid]
IC50: 193 nM

CC(C)CCN(C1CCOCC1)[C@@H]1CC[C@@H](CC(=O)O)C[C@H]1c1ccc(C(F)(F)F)cc1 [Example 30, {(1R,3S,4R)-4-[(3-methylbutyl)(tetrahydro-2H-pyran-4-yl)amino]-3-[4-(trifluoromethyl)phenyl]cyclohexyl}acetic acid, ammonium salt]
pIC50: 5.14

O=C(O)C[C@@H]1CC[C@@H](N(CC2CCCCC2)C2CCOCC2)[C@H](c2ccc(C(F)(F)F)cc2)C1 [Example 31, {(1R,3S,4R)-4-[(cyclohexylmethyl)(tetrahydro-2H-pyran-4-yl)amino]-3-[4-(trifluoromethyl)phenyl]cyclohexyl}acetic acid, ammonium salt]
pIC50: 5.89

CC(C)CCN(CCC1CCCCC1)[C@@H]1CC[C@@H](CC(=O)O)C[C@H]1c1ccc(C(F)(F)F)cc1 [Example 32, {(1R,3S,4R)-4-[(2-cyclohexylethyl)(3-methylbutyl)amino]-3-[4-(trifluoromethyl)phenyl]cyclohexyl}acetic acid, trifluoroacetate salt]
pIC50: 6.22

CC(C)CCN(Cc1nccs1)[C@@H]1CC[C@@H](CC(=O)O)C[C@H]1c1ccc(C(F)(F)F)cc1 [Example 33, {(1R,3S,4R)-4-[(3-methylbutyl)(1,3-thiazol-2-ylmethyl)amino]-3-[4-(trifluoromethyl)phenyl]cyclohexyl}acetic acid, trifluoroacetate acid]
pIC50: 5.52

CCC(C)CN(CC1CCCC1)[C@@H]1CC[C@@H](CC(=O)O)C[C@H]1c1ccc(C(F)(F)F)cc1 (stereo partly drawn) [Example 34, {(1R,3S,4R)-4-[(cyclopentylmethyl)(2-methylbutyl)amino]-3-[4-(trifluoromethyl)phenyl]cyclohexyl}acetic acid, ammonium salt]
pIC50: 6.44

CC(C)(C)CCN(CC1CCCC1)[C@@H]1CC[C@@H](CC(=O)O)C[C@H]1c1ccc(C(F)(F)F)cc1 [Example 35, {(1R,3S,4R)-4-[(cyclopentylmethyl)(3,3-dimethylbutyl)amino]-3-[4-(trifluoromethyl)phenyl]cyclohexyl}acetic acid, ammonium salt]
pIC50: 6.29

CC(C)(C)CN(CC1CCCC1)[C@@H]1CC[C@@H](CC(=O)O)C[C@H]1c1ccc(C(F)(F)F)cc1 [Example 36, {(1R,3S,4R)-4-[(cyclopentylmethyl)(2,2-dimethylpropyl)amino]-3-[4-(trifluoromethyl)phenyl]cyclohexyl}acetic acid, ammonium salt]
pIC50: 6.46

CC(C)(C#N)CCN(CC1CCCC1)[C@@H]1CC[C@@H](CC(=O)O)C[C@H]1c1ccc(C(F)(F)F)cc1 [Example 37, {(1R,3S,4R)-4-[(3-cyano-3-methylbutyl)(cyclopentylmethyl)amino]-3-[4-(trifluoromethyl)phenyl]cyclohexyl}acetic acid, trifluoroacetate salt]
pIC50: 5.66

O=C(O)C[C@@H]1CC[C@@H](N(Cc2cncnc2)CC2CCCC2)[C@H](c2ccc(C(F)(F)F)cc2)C1 [Example 38, {(1R,3S,4R)-4-[(cyclopentylmethyl)(pyrimidin-5-ylmethyl)amino]-3-[4-(trifluoromethyl)phenyl]cyclohexyl}acetic acid, trifluoroacetate salt]
pIC50: 5.28

O=C(O)C[C@@H]1CC[C@@H](N(CC2CCCC2)CC2(F)CCCCC2)[C@H](c2ccc(C(F)(F)F)cc2)C1 [Example 39, {(1R,3S,4R)-4-{(cyclopentylmethyl)[(1-fluorocyclohexyl)methyl]amino}-3-[4-(trifluoromethyl)phenyl]cyclohexyl}acetic acid, ammonium salt]
pIC50: 6.96

O=C(O)C[C@@H]1CC[C@@H](N(CCC2CCCCC2)CC2CCCC2)[C@H](c2ccc(C(F)(F)F)cc2)C1 [Example 40, {(1R,3S,4R)-4-[(2-cyclohexylethyl)(cyclopentyl-methyl)amino]-3-[4-(trifluoromethyl)phenyl]cyclohexyl}acetic acid, trifluoroacetate salt]
pIC50: 6.21

O=C(O)C[C@@H]1CC[C@@H](N(CCC2CCCCO2)CC2CCCC2)[C@H](c2ccc(C(F)(F)F)cc2)C1 (stereo partly drawn) [Example 41, {(1R,3S,4R)-4-{(cyclopentylmethyl)[2-(tetrahydro-2H-pyran-2-yl)ethyl]amino}-3-[4-(trifluoromethyl)phenyl]cyclohexyl}acetic acid, trifluoroacetate salt]
pIC50: 5.25

O=C(O)C[C@@H]1CC[C@@H](N(Cc2cscn2)CC2CCCC2)[C@H](c2ccc(C(F)(F)F)cc2)C1 [Example 42, {(1R,3S,4R)-4-[(cyclopentylmethyl)(1,3-thiazol-4-ylmethyl)amino]-3-[4-(trifluoromethyl)phenyl]cyclohexyl}acetic acid, trifluoroacetate salt]
pIC50: 5.71

CCC(CC)CN(CC1CCCC1)[C@@H]1CC[C@@H](CC(=O)O)C[C@H]1c1ccc(C(F)(F)F)cc1 [Example 43, {(1R,3S,4R)-4-[(cyclopentylmethyl)(2-ethylbutyl)amino]-3-[4-(trifluoromethyl)phenyl]cyclohexyl}acetic acid, trifluoroacetate salt]
pIC50: 6.79

CC(C)CN(CC1CCCC1)[C@@H]1CC[C@@H](CC(=O)O)C[C@H]1c1ccc(C(F)(F)F)cc1 [Example 44, {(1R,3S,4R)-4-[(cyclopentylmethyl)(isobutyl)amino]-3-[4-(trifluoromethyl)phenyl]cyclohexyl}acetic acid, trifluoroacetic salt]
pIC50: 6.50

O=C(O)C[C@@H]1CC[C@@H](N(CCC(F)(F)F)CC2CCCC2)[C@H](c2ccc(C(F)(F)F)cc2)C1 [Example 45, {(1R,3S,4R)-4-[(cyclopentylmethyl)(3,3,3-trifluoropropyl)amino]-3-[4-(trifluoromethyl)phenyl]cyclohexyl}acetic acid, trifluoroacetate salt]
pIC50: 6.32

N#Cc1ccc([C@@H]2O[C@H](CC(=O)O)CC[C@H]2N(CC2CCCC2)CC2CCCC2)cc1 [Example 46, [(2S,5R,6S)-5-[bis(cyclopentylmethyl)amino]-6-(4-cyanophenyl)tetrahydro-2H-pyran-2-yl]acetic acid, ammonium salt]
pIC50: 5.59

O=C(O)C[C@@H]1CC[C@@H](N(CC2CCCC2)CC2CCCC2)[C@H](c2cccc(Cl)c2)O1 [Example 47, [(2S,5R,6S)-5-[bis(cyclopentylmethyl)amino]-6-(3-chlorophenyl)tetrahydro-2H-pyran-2-yl]acetic acid, ammonium salt]
pIC50: 5.74

O=C(O)C[C@@H]1CC[C@@H](N(CCC(F)(F)F)CC2CCCC2)[C@H](c2ccc(Cl)cc2)C1 [Example 48, {(1R,3S,4R)-3-(4-chlorophenyl)-4-[(cyclopentylmethyl)(3,3,3-trifluoropropyl)amino]cyclohexyl}acetic acid, trifluoroacetate salt]
pIC50: 6.36

CCC(CC)CN(CC1CCCC1)[C@@H]1CC[C@@H](CC(=O)O)C[C@H]1c1ccc(Cl)cc1 [Example 49, {(1R,3S,4R)-3-(4-chlorophenyl)-4-[(cyclopentylmethyl)(2-ethylbutyl)amino]cyclohexyl} acetic acid, ammonium salt]
pIC50: 6.32

O=C(O)C[C@@H]1CC[C@@H](N(CC2CCCC2)CC2CCC2)[C@H](c2ccc(C(F)(F)F)cc2)C1 [Example 50, {(1R,3S,4R)-4-[(cyclobutylmethyl) (cyclopentyl)methyl)amino]-3-[4-(trifluoromethyl)phenyl] cyclohexyl}acetic acid, ammonium salt]
pIC50: 6.33

CC(CN(CC1CCCC1)[C@@H]1CC[C@@H](CC(=O)O)C[C@H]1c1ccc(Cl)cc1)C(F)(F)F (stereo partly drawn) [Example 51, {(1R,3S,4R)-3-(4-chlorophenyl)-4-[(cyclopentylmethyl)(3,3,3-trifluoro-2-methylpropyl)amino]cyclohexyl}acetic acid, trifluoroacetate salt]
pIC50: 6.42
